# Experiments:
# [1] = system: binding of human VEGF to its receptor on A549 cells; test: Angiogenic potential: binding of human VEGF to its receptors on A549 cells (anti-VEGF immunofluorescence, confocal); type: cell-based
# Protocol: The angiogenic potential of compound was tested by binding human VEGF to its putative receptors. Human lung epithelial cells (A549 which are highly metastatic and therefore angiogenic in nature) were grown on coverslip in DMEM/F-12 (1:1) or RPMI 1640 media supplemented with 10% FBS, insulin (0.1 units/ml), L-glutamine (2 mM), sodium pyruvate (100 μg/ml), non-essential amino acids (100 μM), penicillin (100 units/ml) and streptomycin ([…]). Cells were incubated at 37° C. in a humidified atmosphere of 5% CO2. The pH of the medium was maintained at 6.2 for the binding assay of VEGF to its receptor in the presence of compound. The cells were pre-treated with media alone or with 25 μg/ml compound for 30 min. The cells were then incubated with 10 ng/ml human VEGF for further 30 min at 37° C. in a humidified atmosphere of 5% CO2. The cells were fixed and stained with anti-VEGF antibody coupled with Alexaflour 488. The cells were visualized in Zeiss-confocal microscope.
# [2] = system: primary cells or cell lines from various origin (human cell lines); test: In vitro toxicity screening of primary cells or cell lines, Trypan blue-exclusion viability test; type: cell-based
# Protocol: To study the toxic effects of compound, a wide spectrum of primary cells or cell lines from various origin were screened for viability, using Trypan blue-exclusion test. Cells were grown in cultures in DMEM/F-12 (1:1) or RPMI 1640 media supplemented with 10% FBS, insulin (0.1 units/ml), L-glutamine (2 mM), sodium pyruvate (100 μg/ml), non-essential amino acids (100 μM), penicillin (100 units/ml) and streptomycin ([…]). Cells were incubated at 37° C. in a humidified atmosphere of 5% CO2.
# Different cells from different origins were cultured in vitro. Various doses of GC-S were added in culture medium. After 24 h number of surviving cells was counted. Each experiment was performed in triplicate and the values agreed well with those of independent experiments
# [3] = system: Swiss albino mice; test: Systemic toxicity in mice: serum toxicity marker enzymes (GOT, GPT, ALP); details: doxorubicin 5 mg/kg body weight
# Protocol: All animal experiments were performed following ‘Principles of laboratory animal care’ (NIH publication No. 85-23, revised in 1985) as well as specific Indian laws on ‘Protection of Animals’ under the provision o authorized investigators. Swiss albino mice (˜20 g each; 10-12 weeks old; 3 mice in each group) were randomly divided into (i) untreated set (i.v. injected with PBS as vehicle only) and (ii) drug-treated set (Compound of this invention 0.1, 0.3, 1.0, 3.0, 10 and 30 mg/kg body weight) for 14 days. Untreated mice received sterile PBS as carrier vehicle. Doxorubicin (5 mg/kg body weight) was used as positive control for toxicity assays.
# For statistical analysis, one-way analysis of variance (ANOVA) was conducted, followed by the Newman-Keuls multiple comparison test. Mean differences with p<0.05 were considered statistically significant.
# Hepato and cardio toxicity due to drug regimens are the shortfall in many instances. The serum levels of GOT, GPT and ALP are clinical indicators of drug-induced toxicity. Blood samples were collected from the retro-orbital plexus of normal and the subject compound-treated mice. Total serum glutamate oxaloacetate transaminase ([…]), glutamate pyruvate transaminase (SGPT), and alkaline phosphate were assayed according to standard protocols.
# Serum GOT, GPT and ALP activities as a marker of systemic toxicity were measured from blood of untreated or treated mice.
Structure (SMILES),"Increase of binding of VEGF to its receptor ([1]; A549 cells pre-incubated with 25 μg/ml compound 30 min, then 10 ng/ml human VEGF 30 min, pH 6.2)","VEGF binding on the membrane of normal A549 cell after compound treatment ([1]; A549 cells, compound alone, no added VEGF)","Toxicity to cells ([2]; 100 and 200 μg/mL doses, below significant killing)",Toxic effects on cells ([2]; doses 12.5 to 200 μg/mL range),"Percent of cell killing ([2]; up to 50 μg/mL doses, 24 h, Trypan blue exclusion)",ALP [3],SGOT [3],SGPT [3],"Levels of serum GOT and GPT ([3]; positive control, p<0.05)"
NCCCCC(N)C(=O)O (stereo not drawn) [Compound of this invention],10-15 times,remains unaltered,mild toxicity,no toxic effects,less than 5%,,,,
COc1cccc2c1C(=O)c1c(O)c3c(c(O)c1C2=O)C[C@@](O)(C(=O)CO)C[C@@H]3O[C@H]1C[C@H](N)[C@H](O)[C@H](C)O1 [Doxorubicin],,,,,,43 KA units,79 IU/dL,68 IU/dL,significantly increased

# — US20100280120A1, “COMPOUND INDUCING ANGIOGENESIS RESPONSE IN ISCHAEMIC TISSUES” (Green Cross Therapeutics Private Limited, priority 2007, published 2010)
